Patent US8557823B2, “Family of PFKFB3 inhibitors with anti-neoplastic activities” (Advanced Cancer Therapeutics, LLC, priority 2007, dated 2013)

Columns and labels:
[1] = system: +/+ ht/LT/ras fibroblasts; experiment: Growth inhibition of wild-type transformed fibroblasts; format: cell-based, mice; conditions: Mus musculus, Fibroblast, 48 hours
From the text: FIG. 6B is a bar graph showing the anti-proliferative effects of 3PO in fibroblasts from wild-type (+/+) or haplo-insufficient (+/−) PFKFB3 mice which were subsequently immortalized and transformed with human telomerase (ht), large T antigen (LT), and oncogenic H-ras^v12. Cell numbers (expressed as % of cell numbers of control cells) for transformed wild type (+/+) cells are shown in solid bars and numbers for transformed haplo-insufficient (+/−) cells are shown in striped bars. As indicated at the bottom of the graph, cells were incubated with vehicle or increasing amounts of 3PO (5, 10, 20, 30, 40, or 60 μM). Viable cells were counted after 48 hours. The bars represent the mean±STD of triplicate values from a representative experiment. * p-value<0.01 represents statistical difference between vehicle control and 3PO treated samples.
Cells were collected 48 hours post-treatment, and cell number and viability were determined by trypan blue exclusion. IC50 values were calculated as the compound 1 concentration needed for 50% of vehicle treated cell growth.
One of the most difficult challenges of new anti-neoplastic therapies is in situ target validation. To address this question, two different cell lines with varying levels of PFKFB3 expression were studied. […]

[2] = system: Lewis Lung Carcinoma xenografts; experiment: Lewis Lung Carcinoma xenografts in C57/Blk6 mice; format: in vivo; conditions: 0.07 mg/g IP once daily, 14 days
Method: FIG. 7A is a graph showing the effects of 3PO treatment on the growth of Lewis Lung Carcinoma tumor xenografts in C57/Blk6 mice. Tumors were measured daily using blunt end Vernier calipers, and mice with established tumors (130-190 mg) were blindly randomized into either a DMSO control group (•, n=11) or a 3PO treatment group (∘, n=14). Experimental mice were weighed and given daily intraperitoneal (i.p.) injections of either 50 μL DMSO or 0.07 mg/g 3PO in 50 μL DMSO at the indicated time points. Arrows (↓) represent control or 3PO daily administrations. Statistically significant difference between DMSO and 3PO groups was obtained after initial injection (Day 2, p-value<0.0003).
(§1) Exponentially growing MDA-MB231 and HL-60 cells were collected in appropriate medium, washed twice and resuspended in PBS at a concentration of 20×10^7 cells/mL. […] Body weight and tumor growth were monitored daily throughout the study. Tumor masses were determined by measurement with Vernier calipers using the formula: mass (mg)=[width (mm^2)×length (mm)]/2. […]
(§2) The first tumor model tested consisted of mouse Lewis Lung Carcinoma xenografts grown in C57/Blk6 mice. For this study, mice were given IP injections of either DMSO or the calculated dose of 1 once daily for the duration of the study (14 days). […]

[3] = system: HL-60 leukemia cell xenografts; experiment: HL-60 leukemia xenografts in Balb/c nude mice; format: in vivo; conditions: 0.07 mg/g IP, two daily injections followed by seven days off
Method: FIG. 7C is a graph showing the effects of 3PO treatment on the growth of established HL-60 acute promyelocytic leukemia xenografts in Balb/c athymic mice. Tumors were measured daily using blunt end Vernier calipers, and mice with established tumors (130-190 mg) were blindly randomized into either a DMSO control group (•, n=11) or a 3PO treatment group (∘, n=12). Experimental mice were weighed and given intraperitoneal (i.p.) injections of either 50 μL DMSO or 0.07 mg/g 3PO in 50 μL DMSO according to a cyclical dosing regimen of two sequential daily injections of DMSO or 3PO followed by seven day rest period for the duration of the study (14 days). Arrows (↓) represent control or 3PO administrations. Statistical difference was obtained after initial injection with a p-value<0.0001.
as §1, §2

[4] = Echocardiographic examination of cardiac function; format: in vivo; conditions: compound-treated mice, 0.07 mg/g i.p.
Method: A difference in cardiac ^18F-2-DG uptake was also observed between the compound 1-treated and control group mice. Echocardiograms were performed as described in Dawn et al., Proc. Natl. Acad. Aci., U.S.A., 102, 3766-3771 (2005). […] Overall, it appears that 1 targets PFK2 activity in vivo resulting in a reduced glycolytic phenotype.

O=C(/C=C/c1cccnc1)c1ccncc1 [Compound 1, 3-(3-pyridinyl)-1-(4-pyridinyl)-2-propen-1-one]
IC50 [1]: 49 µM
suppression of xenograft growth compared to DMSO control [2]: 73%
inhibition of tumor growth compared to DMSO controls [3]: > 74%
ejection fraction [4]: 71%±6%
